From ChEMBL document CHEMBL3867433, “Synthesis and antimicrobial activity of styryl/pyrrolyl/pyrazolyl sulfonylmethyl-1,3,4-oxadiazolyl amines and styryl/pyrrolyl/pyrazolyl sulfonylmethyl-1,3,4-thiadiazolyl amines” (2016)

How the values were obtained:
Assay type in all cases: functional
[1] = Antifungal activity against Penicillium chrysogenum assessed as inhibition of spore germination at 100 ug/well after 48 hrs by agar well diffusion method
[2] = system: Aspergillus niger; test: Antifungal activity against Aspergillus niger assessed as inhibition of spore germination at 50 ug/well after 48 hrs by agar well diffusion method; conditions: read-out: DIZ
[3] = system: Aspergillus niger; test: Antifungal activity against Aspergillus niger assessed as inhibition of spore germination at 100 ug/well after 48 hrs by agar well diffusion method; conditions: read-out: DIZ
[4] = system: Pseudomonas aeruginosa; test: Antibacterial activity against Pseudomonas aeruginosa at 12.5 ug/well after 24 hrs by agar well diffusion method; conditions: read-out: DIZ
[5] = system: Klebsiella pneumoniae; test: Antibacterial activity against Klebsiella pneumoniae at 100 ug/well after 24 hrs by agar well diffusion method; conditions: read-out: DIZ
[6] = system: Klebsiella pneumoniae; test: Antibacterial activity against Klebsiella pneumoniae at 25 ug/well after 24 hrs by agar well diffusion method; conditions: read-out: DIZ
[7] = system: Bacillus subtilis; test: Antibacterial activity against Bacillus subtilis at 25 ug/well after 24 hrs by agar well diffusion method; conditions: read-out: DIZ
[8] = system: Pseudomonas aeruginosa; test: Antibacterial activity against Pseudomonas aeruginosa at 100 ug/well after 24 hrs by agar well diffusion method; conditions: read-out: DIZ
[9] = system: Bacillus subtilis; test: Antibacterial activity against Bacillus subtilis at 12.5 ug/well after 24 hrs by agar well diffusion method; conditions: read-out: DIZ
[10] = system: Staphylococcus aureus; test: Antibacterial activity against Staphylococcus aureus at 100 ug/well after 24 hrs by agar well diffusion method; conditions: read-out: DIZ
[11] = Antifungal activity against Penicillium chrysogenum assessed as inhibition of spore germination at 50 ug/well after 48 hrs by agar well diffusion method
[12] = system: Aspergillus niger; test: Antifungal activity against Aspergillus niger assessed as inhibition of spore germination at 25 ug/well after 48 hrs by agar well diffusion method; conditions: read-out: DIZ
[13] = system: Staphylococcus aureus; test: Antibacterial activity against Staphylococcus aureus at 50 ug/well after 24 hrs by agar well diffusion method; conditions: read-out: DIZ
[14] = system: Bacillus subtilis; test: Antibacterial activity against Bacillus subtilis at 100 ug/well after 24 hrs by agar well diffusion method; conditions: read-out: DIZ
[15] = system: Aspergillus niger; test: Antifungal activity against Aspergillus niger assessed as inhibition of spore germination at 12.5 ug/well after 48 hrs by agar well diffusion method; conditions: read-out: DIZ
[16] = Antifungal activity against Penicillium chrysogenum assessed as inhibition of spore germination at 25 ug/well after 48 hrs by agar well diffusion method
[17] = system: Pseudomonas aeruginosa; test: Antibacterial activity against Pseudomonas aeruginosa at 25 ug/well after 24 hrs by agar well diffusion method; conditions: read-out: DIZ
[18] = system: Pseudomonas aeruginosa; test: Antibacterial activity against Pseudomonas aeruginosa at 50 ug/well after 24 hrs by agar well diffusion method; conditions: read-out: DIZ
[19] = system: Bacillus subtilis; test: Antibacterial activity against Bacillus subtilis at 50 ug/well after 24 hrs by agar well diffusion method; conditions: read-out: DIZ
[20] = system: Klebsiella pneumoniae; test: Antibacterial activity against Klebsiella pneumoniae at 50 ug/well after 24 hrs by agar well diffusion method; conditions: read-out: DIZ
[21] = Antifungal activity against Penicillium chrysogenum assessed as inhibition of spore germination at 12.5 ug/well after 48 hrs by agar well diffusion method
[22] = system: Klebsiella pneumoniae; test: Antibacterial activity against Klebsiella pneumoniae at 12.5 ug/well after 24 hrs by agar well diffusion method; conditions: read-out: DIZ
[23] = system: Staphylococcus aureus; test: Antibacterial activity against Staphylococcus aureus at 12.5 ug/well after 24 hrs by agar well diffusion method; conditions: read-out: DIZ
[24] = system: Staphylococcus aureus; test: Antibacterial activity against Staphylococcus aureus at 25 ug/well after 24 hrs by agar well diffusion method; conditions: read-out: DIZ

Q: Which results are given for `Nc1nnc(CS(=O)(=O)C2=NNCC2c2ccccc2)s1` (configuration not stated)?
A: inhibition zone (IZ) [1]: 12 mm; zone of inhibition at 50 µg/disc [2]: 7 mm; zone of inhibition at 100 µg/disc [3]: 9 mm

Q: Which results are given for `Cc1ccc(C2CNN=C2S(=O)(=O)Cc2nnc(N)s2)cc1` (configuration not stated)?
A: inhibition zone (IZ) [1]: 11 mm; zone of inhibition at 50 µg/disc [2]: 4 mm; zone of inhibition at 100 µg/disc [3]: 8 mm

Q: Which zone of inhibition at 12.5 µg/disc [4] does the source give for `Cc1ccc(/C=C\S(=O)(=O)Cc2nnc(N)o2)cc1` here?
A: 12 mm

Q: And the zone of inhibition at 100 µg/disc [5]?
A: 17 mm

Q: And the zone of inhibition at 25 µg/disc [6]?
A: 13 mm

Q: What about the zone of inhibition at 25 µg/disc [7] of the same compound?
A: 9 mm

Q: And the zone of inhibition at 100 µg/disc [8]?
A: 18 mm

Q: And the inhibition zone (IZ) [1]?
A: 16 mm

Q: What about the zone of inhibition at 12.5 µg/disc [9] of the same compound?
A: 8 mm

Q: And the zone of inhibition at 100 µg/disc [10]?
A: 14 mm

Q: And the inhibition zone (IZ) [11]?
A: 14 mm

Q: And the zone of inhibition at 25 µg/disc [12]?
A: 10 mm

Q: What about the zone of inhibition at 50 µg/disc [13] of the same compound?
A: 12 mm

Q: And the zone of inhibition at 50 µg/disc [2]?
A: 11 mm

Q: What about the zone of inhibition at 100 µg/disc [14] of the same compound?
A: 14 mm

Q: What about the zone of inhibition at 12.5 µg/disc [15] of the same compound?
A: 8 mm

Q: What about the inhibition zone (IZ) [16] of the same compound?
A: 12 mm

Q: What about the zone of inhibition at 25 µg/disc [17] of the same compound?
A: 14 mm

Q: What about the zone of inhibition at 50 µg/disc [18] of the same compound?
A: 16 mm

Q: And the zone of inhibition at 50 µg/disc [19]?
A: 11 mm

Q: And the zone of inhibition at 100 µg/disc [3]?
A: 13 mm

Q: What about the zone of inhibition at 50 µg/disc [20] of the same compound?
A: 15 mm

Q: And the inhibition zone (IZ) [21]?
A: 10 mm

Q: And the zone of inhibition at 12.5 µg/disc [22]?
A: 11 mm

Q: What does the source list for `Cc1ccc(-c2c[nH]nc2S(=O)(=O)Cc2nnc(N)o2)cc1`?
A: zone of inhibition at 12.5 µg/disc [4]: 9 mm; zone of inhibition at 100 µg/disc [5]: 14 mm; zone of inhibition at 25 µg/disc [7]: 7 mm; zone of inhibition at 100 µg/disc [8]: 14 mm; inhibition zone (IZ) [1]: 14 mm; zone of inhibition at 12.5 µg/disc [9]: 6 mm; zone of inhibition at 100 µg/disc [10]: 12 mm; inhibition zone (IZ) [11]: 11 mm; zone of inhibition at 25 µg/disc [12]: 8 mm; zone of inhibition at 50 µg/disc [2]: 10 mm; zone of inhibition at 100 µg/disc [14]: 11 mm; zone of inhibition at 25 µg/disc [17]: 10 mm; zone of inhibition at 50 µg/disc [18]: 12 mm; zone of inhibition at 50 µg/disc [19]: 9 mm; zone of inhibition at 100 µg/disc [3]: 10 mm; zone of inhibition at 50 µg/disc [20]: 12 mm

Q: Which results are given for `Nc1nnc(CS(=O)(=O)c2n[nH]cc2-c2ccc(Cl)cc2)o1`?
A: zone of inhibition at 12.5 µg/disc [4]: 12 mm; zone of inhibition at 100 µg/disc [5]: 17 mm; zone of inhibition at 25 µg/disc [6]: 13 mm; zone of inhibition at 25 µg/disc [7]: 9 mm; zone of inhibition at 100 µg/disc [8]: 18 mm; inhibition zone (IZ) [1]: 17 mm; zone of inhibition at 12.5 µg/disc [9]: 8 mm; zone of inhibition at 12.5 µg/disc [23]: 8 mm; zone of inhibition at 100 µg/disc [10]: 15 mm; inhibition zone (IZ) [11]: 15 mm; zone of inhibition at 25 µg/disc [12]: 9 mm; zone of inhibition at 50 µg/disc [13]: 12 mm; zone of inhibition at 50 µg/disc [2]: 11 mm; zone of inhibition at 100 µg/disc [14]: 13 mm; zone of inhibition at 25 µg/disc [24]: 10 mm; inhibition zone (IZ) [16]: 13 mm; zone of inhibition at 25 µg/disc [17]: 14 mm; zone of inhibition at 50 µg/disc [18]: 16 mm; zone of inhibition at 50 µg/disc [19]: 12 mm; zone of inhibition at 100 µg/disc [3]: 13 mm; zone of inhibition at 50 µg/disc [20]: 15 mm; inhibition zone (IZ) [21]: 12 mm; zone of inhibition at 12.5 µg/disc [22]: 11 mm

Q: Which zone of inhibition at 12.5 µg/disc [4] does the source give for `Nc1nnc(CS(=O)(=O)c2c[nH]cc2-c2ccc(Cl)cc2)o1` here?
A: 9 mm

Q: And the zone of inhibition at 100 µg/disc [5]?
A: 14 mm

Q: What about the zone of inhibition at 25 µg/disc [6] of the same compound?
A: 10 mm

Q: What about the zone of inhibition at 100 µg/disc [8] of the same compound?
A: 15 mm

Q: What about the inhibition zone (IZ) [1] of the same compound?
A: 18 mm

Q: And the zone of inhibition at 12.5 µg/disc [23]?
A: 7 mm

Q: What about the zone of inhibition at 100 µg/disc [10] of the same compound?
A: 12 mm

Q: And the inhibition zone (IZ) [11]?
A: 16 mm

Q: And the zone of inhibition at 25 µg/disc [12]?
A: 10 mm

Q: And the zone of inhibition at 50 µg/disc [13]?
A: 9 mm

Q: What about the zone of inhibition at 50 µg/disc [2] of the same compound?
A: 9 mm

Q: What about the zone of inhibition at 100 µg/disc [14] of the same compound?
A: 13 mm

Q: And the zone of inhibition at 25 µg/disc [24]?
A: 8 mm

Q: And the inhibition zone (IZ) [16]?
A: 14 mm

Q: And the zone of inhibition at 25 µg/disc [17]?
A: 11 mm

Q: What about the zone of inhibition at 50 µg/disc [18] of the same compound?
A: 13 mm

Q: What about the zone of inhibition at 50 µg/disc [19] of the same compound?
A: 11 mm

Q: What about the zone of inhibition at 100 µg/disc [3] of the same compound?
A: 14 mm

Q: What about the zone of inhibition at 50 µg/disc [20] of the same compound?
A: 12 mm

Q: And the inhibition zone (IZ) [21]?
A: 12 mm

Q: What about the zone of inhibition at 12.5 µg/disc [22] of the same compound?
A: 8 mm

Q: Which inhibition zone (IZ) [1] does the source give for `Nc1nnc(CS(=O)(=O)C2=NNCC2c2ccc(Cl)cc2)s1` (configuration not stated) here?
A: 13 mm

Q: And the inhibition zone (IZ) [11]?
A: 10 mm

Q: What about the zone of inhibition at 50 µg/disc [2] of the same compound?
A: 10 mm

Q: And the zone of inhibition at 100 µg/disc [3]?
A: 11 mm
